Columns and labels:
[1] = biological target: T1, Voltage-gated inwardly rectifying potassium channel KCNH2 (Homo sapiens, UniProt Q12809); assay: Displacement of Tracer Red from human ERG by fluorescence polarization assay
[2] = biological target: Chitotriosidase-1 (Homo sapiens, UniProt Q13231); assay: Inhibition of full length recombinant C-terminal His-taged human CHIT1 expressed in CHOK1 cells assessed as reduction in chitinolytic activity using 4-methylumbelliferyl-beta-D-N,N',N''-[…] as substrate incubated for 60 mins under shaking condition by microplate fluorometry analysis; design: species or system CHO-K1
[3] = AUC (0 to infinity) in Sprague-Dawley rat at 10 mg/kg, po administered as single dose measured after 24 hrs by LC-MS/MS analysis; format: ADME, organism-based; design: dose 10 mg/kg, time infinity, route oral; conditions: in vivo
[4] = biological target: Acidic mammalian chitinase (Homo sapiens, UniProt Q9BZP6); assay: Inhibition of full length recombinant C-terminal His-tagged human acidic mammalian chitinase expressed in CHOK1 cells assessed as reduction in chitinolytic activity using 4-methylumbelliferyl-beta-D-N,N-diacetylchitobioside hydrate as substrate incubated for 60 mins under shaking condition by microplate fluorometry analysis; design: species or system CHO-K1
[5] = Cmax in Sprague-Dawley rat at 10 mg/kg, po administered as single dose measured after 24 hrs by LC-MS/MS analysis; format: ADME, organism-based; design: dose 10 mg/kg, route oral; conditions: in vivo
[6] = Mean residence time in BALB/c mouse at 10 mg/kg, po administered as single dose measured after 24 hrs by LC-MS/MS analysis; format: ADME, organism-based; conditions: in vivo
[7] = Half life in BALB/c mouse at 3 mg/kg, iv administered as single bolus dose measured after 24 hrs by LC-MS/MS analysis; format: ADME, organism-based; conditions: in vivo
[8] = Tmax in Sprague-Dawley rat at 10 mg/kg, po administered as single dose measured after 24 hrs by LC-MS/MS analysis; format: ADME, organism-based; conditions: in vivo
[9] = Mean residence time in Sprague-Dawley rat at 10 mg/kg, po administered as single dose measured after 24 hrs by LC-MS/MS analysis; format: ADME, organism-based; conditions: in vivo
[10] = AUC(0 to infinity) in Sprague-Dawley rat at 10 mg/kg, po administered as single dose measured after 24 hrs by LC-MS/MS analysis; format: ADME, organism-based; design: dose 10 mg/kg, route oral, time infinity; conditions: in vivo
[11] = Half life in Sprague-Dawley rat at 10 mg/kg, po administered as single dose measured after 24 hrs by LC-MS/MS analysis; format: ADME, organism-based; conditions: in vivo
[12] = biological target: T1, Voltage-gated inwardly rectifying potassium channel KCNH2; assay: Inhibition of human ERG expressed in CHO-K1 cells by automated Qpatch-clamp assay; format: cell-based
[13] = Tmax in BALB/c mouse at 10 mg/kg, po administered as single dose measured after 24 hrs by LC-MS/MS analysis; format: ADME, organism-based; conditions: in vivo
[14] = Clearance in BALB/c mouse at 3 mg/kg, iv administered as single bolus dose measured after 24 hrs by LC-MS/MS analysis; format: ADME, organism-based; conditions: in vivo
[15] = Half life in BALB/c mouse at 10 mg/kg, po administered as single dose measured after 24 hrs by LC-MS/MS analysis; format: ADME, organism-based; conditions: in vivo
[16] = Cmax in BALB/c mouse at 10 mg/kg, po administered as single dose measured after 24 hrs by LC-MS/MS analysis; format: ADME, organism-based; design: dose 10 mg/kg, route oral; conditions: in vivo
[17] = Oral bioavailability in BALB/c mouse at 10 mg/kg administered as single dose measured after 24 hrs by LC-MS/MS analysis; format: ADME, organism-based; conditions: in vivo
[18] = Volume of distribution at steady state in BALB/c mouse at 3 mg/kg, iv administered as single bolus dose measured after 24 hrs by LC-MS/MS analysis; format: ADME, organism-based; conditions: in vivo, read-out: Vdss
[19] = AUC (0 to infinity) in BALB/c mouse at 10 mg/kg, po administered as single dose measured after 24 hrs by LC-MS/MS analysis; format: ADME, organism-based; design: dose 10 mg/kg, route oral, time infinity; conditions: in vivo
[20] = Mean residence time in BALB/c mouse at 3 mg/kg, iv administered as single bolus dose measured after 24 hrs by LC-MS/MS analysis; format: ADME, organism-based; conditions: in vivo
[21] = Cmax in BALB/c mouse at 3 mg/kg, iv administered as single bolus dose measured after 24 hrs by LC-MS/MS analysis; format: ADME, organism-based; design: dose 3 mg/kg, route intravenous; conditions: in vivo
[22] = AUC (0 to infinity) in BALB/c mouse at 3 mg/kg, iv administered as single dose measured after 24 hrs by LC-MS/MS analysis; format: ADME, organism-based; design: dose 3 mg/kg, route intravenous, time infinity; conditions: in vivo

T1 sequence (Q12809 whole entry): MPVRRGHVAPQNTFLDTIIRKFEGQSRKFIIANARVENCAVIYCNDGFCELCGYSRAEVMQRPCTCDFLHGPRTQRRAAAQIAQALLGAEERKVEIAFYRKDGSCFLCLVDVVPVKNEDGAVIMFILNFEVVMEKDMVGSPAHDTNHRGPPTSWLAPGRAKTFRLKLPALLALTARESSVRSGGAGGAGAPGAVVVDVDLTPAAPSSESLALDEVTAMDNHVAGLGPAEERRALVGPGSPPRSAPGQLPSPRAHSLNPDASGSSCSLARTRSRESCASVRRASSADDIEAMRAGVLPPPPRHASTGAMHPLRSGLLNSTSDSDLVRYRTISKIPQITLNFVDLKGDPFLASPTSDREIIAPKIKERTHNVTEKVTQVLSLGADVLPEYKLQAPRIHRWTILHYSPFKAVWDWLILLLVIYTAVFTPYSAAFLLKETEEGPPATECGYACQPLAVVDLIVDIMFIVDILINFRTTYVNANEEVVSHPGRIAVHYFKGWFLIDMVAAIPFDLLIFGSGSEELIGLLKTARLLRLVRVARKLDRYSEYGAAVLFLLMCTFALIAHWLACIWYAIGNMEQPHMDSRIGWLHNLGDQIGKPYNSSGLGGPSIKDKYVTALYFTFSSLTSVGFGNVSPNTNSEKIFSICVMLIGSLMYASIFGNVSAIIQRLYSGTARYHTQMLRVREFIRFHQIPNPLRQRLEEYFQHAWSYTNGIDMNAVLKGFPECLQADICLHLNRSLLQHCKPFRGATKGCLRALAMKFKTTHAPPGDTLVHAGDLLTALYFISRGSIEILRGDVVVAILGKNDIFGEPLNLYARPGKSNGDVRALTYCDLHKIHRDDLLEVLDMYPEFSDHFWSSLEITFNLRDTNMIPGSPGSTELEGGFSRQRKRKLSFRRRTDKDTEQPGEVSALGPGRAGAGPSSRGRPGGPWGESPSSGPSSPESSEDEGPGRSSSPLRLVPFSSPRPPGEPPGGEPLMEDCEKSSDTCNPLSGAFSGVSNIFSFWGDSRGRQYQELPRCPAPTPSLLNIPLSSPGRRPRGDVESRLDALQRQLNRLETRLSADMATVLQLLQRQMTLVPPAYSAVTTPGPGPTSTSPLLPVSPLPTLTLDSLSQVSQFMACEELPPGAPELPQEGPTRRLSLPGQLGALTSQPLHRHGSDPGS
Sequence of Acidic mammalian chitinase (Q9BZP6 whole entry): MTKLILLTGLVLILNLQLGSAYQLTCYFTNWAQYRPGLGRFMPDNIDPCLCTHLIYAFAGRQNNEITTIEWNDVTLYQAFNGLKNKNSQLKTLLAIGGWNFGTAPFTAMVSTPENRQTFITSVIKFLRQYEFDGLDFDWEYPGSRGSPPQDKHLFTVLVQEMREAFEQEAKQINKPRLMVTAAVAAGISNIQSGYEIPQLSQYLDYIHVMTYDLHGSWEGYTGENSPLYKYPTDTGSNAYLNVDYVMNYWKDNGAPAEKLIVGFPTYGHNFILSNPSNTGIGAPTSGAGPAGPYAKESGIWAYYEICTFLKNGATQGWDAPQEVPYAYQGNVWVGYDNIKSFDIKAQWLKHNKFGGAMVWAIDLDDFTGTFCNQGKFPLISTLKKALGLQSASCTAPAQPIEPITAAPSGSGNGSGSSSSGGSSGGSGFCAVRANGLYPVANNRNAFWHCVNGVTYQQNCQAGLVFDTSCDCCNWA
Sequence of Chitotriosidase-1 (Q13231 whole entry): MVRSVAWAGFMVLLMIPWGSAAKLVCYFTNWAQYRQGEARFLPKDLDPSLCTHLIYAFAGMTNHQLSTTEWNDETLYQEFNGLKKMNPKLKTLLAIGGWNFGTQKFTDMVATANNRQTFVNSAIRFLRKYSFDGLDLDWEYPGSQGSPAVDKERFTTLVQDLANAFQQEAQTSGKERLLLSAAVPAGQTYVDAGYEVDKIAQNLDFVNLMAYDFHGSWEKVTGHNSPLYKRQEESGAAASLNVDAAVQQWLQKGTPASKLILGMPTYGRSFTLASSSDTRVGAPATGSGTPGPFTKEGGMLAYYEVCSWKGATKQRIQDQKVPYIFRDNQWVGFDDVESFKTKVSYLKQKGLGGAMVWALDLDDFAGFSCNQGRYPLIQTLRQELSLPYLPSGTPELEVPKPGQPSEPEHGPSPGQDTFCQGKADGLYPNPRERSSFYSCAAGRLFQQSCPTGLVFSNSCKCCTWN

Compound | IC50 [1] | IC50 [2] | AUC(0-inf) [3] | IC50 [4] | also measured
Nc1n[nH]c(N2CCC(N(CCc3ccc(Cl)cc3)Cc3ccccc3Cl)CC2)n1 | 2000 nM | 104 nM | 1400 ng·h/mL | – | –
CN(C1CCN(c2n[nH]c(N)n2)CC1)[C@H](COc1ccc(Cl)cc1)Cc1ccc(Cl)cc1 | – | 16000 nM | – | 580 nM | –
Nc1nnc(N2CCC(N3Cc4cc(F)ccc4OC[C@@H]3Cc3ccc(Cl)cc3)CC2)[nH]1 | – | 930 nM | – | 7 nM | –
N#Cc1ccc2c(c1)CN(C1CCN(c3n[nH]c(N)n3)CC1)[C@@H](Cc1ccc(Cl)cc1)CO2 | 23000 nM | 7300 nM | – | 49 nM | –
Nc1nc(N2CCC(N(CCc3ccc(Cl)cc3)Cc3ccncc3Cl)CC2)n[nH]1 | 6400 nM | 620 nM | 430 ng·h/mL | 15 nM | Cmax [5]: 130 ng/mL
Nc1nc(N2CCC(N3Cc4cccnc4OC[C@@H]3Cc3ccc(Cl)cc3)CC2)n[nH]1 | > 50000 nM | 2400 nM | – | 30 nM | –
CN1C[C@H](Cc2ccc(Cl)cc2)N(C2CCN(c3nnc(N)[nH]3)CC2)Cc2cc(Cl)ccc21 | 800 nM | 420 nM | – | 0.7 nM | –
Nc1nc(N2CCC(N(CCc3ccc(Cl)cc3)Cc3cc(F)ccc3F)CC2)n[nH]1 | – | 277 nM | 2400 ng·h/mL | 5 nM | Cmax [5]: 600 ng/mL
Nc1nnc(N2CCC(N3Cc4ccncc4OC[C@@H]3Cc3ccc(Cl)cc3)CC2)[nH]1 | 50000 nM | 4400 nM | – | 55 nM | –
Nc1nc(N2CCC(N3Cc4cnccc4OC[C@@H]3Cc3ccc(Cl)cc3)CC2)n[nH]1 | 17000 nM | 18000 nM | – | 290 nM | –
Nc1nc(N2CCC(N(CCc3ccc(Cl)cc3)Cc3cccc(C(F)(F)F)c3)CC2)n[nH]1 | 2700 nM | 310 nM | 13700 ng·h/mL | 12 nM | Cmax [5]: 1600 ng/mL
Nc1nnc(N2CCC(N3Cc4cc(Cl)ccc4OC[C@@H]3Cc3ccc(Cl)cc3)CC2)[nH]1 | 6700 nM | 2300 nM | – | 8 nM | –
C=C1COC[C@H](Cc2ccc(Cl)cc2)N(C2CCN(c3nnc(N)[nH]3)CC2)C1 | – | 350 nM | – | 12 nM | –
Nc1n[nH]c(N2CCC(N(CCc3ccc(Cl)cc3)Cc3ccccc3)CC2)n1 | – | 122 nM | – | – | –
Nc1nc(N2CCC(N(CCc3ccc(Cl)cc3)Cc3cccc(O)c3)CC2)n[nH]1 | 150 nM | 79 nM | – | 2 nM | –
Nc1nnc(N2CCC(N3Cc4ccccc4OC[C@@H]3Cc3ccc(Cl)cc3)CC2)[nH]1 | 22000 nM | 915 nM | – | 7 nM | MRT [6]: 50.4 min; half-life [7]: 84 min; Tmax [8]: 30 min; MRT [9]: 252 min; AUC(0-inf) [10]: 22500 ng·h/mL; half-life [11]: 252 min; IC50 [12]: 23000 nM; Cmax [5]: 3400 ng/mL; Tmax [13]: 30 min; clearance [14]: 16.7 mL/min/kg; half-life [15]: 66 min; Cmax [16]: 3100 ng/mL; bioavailability [17]: 41%; Vd [18]: 0.35 L/kg; AUC(0-inf) [19]: 3900 ng·h/mL; MRT [20]: 20.4 min; Cmax [21]: 9500 ng/mL; AUC(0-inf) [22]: 2900 ng·h/mL
Nc1nc(N2CCC(N(CCc3ccc(Cl)cc3)Cc3ccccc3O)CC2)n[nH]1 | 100 nM | 49 nM | – | 2 nM | –
CC(C)CN(CCc1ccc(Cl)cc1)C1CCN(c2nc(N)n[nH]2)CC1 | – | 229 nM | 90 ng·h/mL | – | –
Nc1nnc(N2CCC(N3Cc4cc(Cl)cc(Cl)c4OC[C@@H]3Cc3ccc(Cl)cc3)CC2)[nH]1 | 6000 nM | > 20000 nM | – | 68 nM | –
Nc1nc(N2CCC(N(CCc3ccc(Cl)cc3)Cc3ccc(Cl)cc3)CC2)n[nH]1 | 400 nM | 90 nM | 7000 ng·h/mL | 4 nM | –
CN1C[C@H](Cc2ccc(Cl)cc2)N(C2CCN(c3nnc(N)[nH]3)CC2)Cc2ccccc21 | 3200 nM | 275 nM | – | 1.4 nM | –
Nc1nc(N2CCC(N(CCc3ccc(Cl)cc3)Cc3ccc(F)cc3Cl)CC2)n[nH]1 | – | 200 nM | 7500 ng·h/mL | 5 nM | Cmax [5]: 690 ng/mL
Nc1nc(N2CCC(N(Cc3ccccc3)[C@H](CO)Cc3ccc(Cl)cc3)CC2)n[nH]1 | 2900 nM | 18000 nM | – | 245 nM | –
Nc1nc(N2CCC(N(CCc3ccc(Cl)cc3)Cc3cccc(Cl)c3)CC2)n[nH]1 | 3700 nM | 176 nM | 7800 ng·h/mL | 6 nM | Cmax [5]: 780 ng/mL

Source: ChEMBL document CHEMBL4616703, “Benzoxazepine-Derived Selective, Orally Bioavailable Inhibitor of Human Acidic Mammalian Chitinase” (ACS Med Chem Lett, 2020)
